Results reported in ChEMBL document CHEMBL1201862, “PubChem BioAssay data set” (2004).
Activity calls are given as the source filed them.

Key:
[1] = Vero E6 cell cytotoxicity, dose response, cytotoxicity control for non-replicating M. tuberculosis project, secondary assay (AID 492998); type: functional, VeroE6; settings: Vero C1008
cells = type: functional
[2] = inhibitors of intracellular T. cruzi replication, confirmation, NIH3T3 host cells, beta-gal luminescence (AID 2044); type: functional, cell-based;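 also: intracellular parasites grown in NIH/3T3 mouse fibroblasts as host cells; luminescent beta-galactosidase reporter signal from transgenic T. cruzi replicating inside host cells; inhibitors lower the luminescence signal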
[3] = target: Serine/threonine-protein phosphatase PP1-alpha catalytic subunit (Homo sapiens, UniProt P62136); assay: PP1 phosphatase inhibitors, dose response, biochemical, fluorescence (AID 2403);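 also: phosphatase turnover of OMFP into fluorescent 3-O-methylfluorescein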
Nonstructural protein 1 = Nonstructural protein 1 (Influenza A virus, UniProt Q194T2); type: functional, Influenza A virus (A/California/07/2009(H1N1))
[4] = target: Voltage-dependent T-type calcium channel subunit alpha-1H (Homo sapiens, UniProt O95180); type: functional;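 also: channel activity triggered by adding a high calcium stimulation buffer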
[5] = cytotoxicity toward NIH3T3 fibroblasts, dose response, counter-screen, cell-based, ATP luminescence, mouse fibroblasts (AID 2010); type: functional;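 also: cells exposed to compound for about 90 hours before reading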
[6] = target: Glyceraldehyde-3-phosphate dehydrogenase (Homo sapiens, UniProt P04406)
[7] = target: Serine/threonine-protein phosphatase (Homo sapiens, UniProt Q9BPW0); assay: Counterscreen for inhibitors of PP1: fluorescence-based biochemical high throughput dose response assay to identify inhibitors of Protein Phosphatase 5 (PP5). [Related pubchem assays: 2034 (Summary (PP5 inhibitors)), 1987 (PP5 inhibitors in singlate), 2235 (PP1 inhibitors in singlate)]
[8] = THP-1 cell cytotoxicity, dose response, cytotoxicity control for non-replicating M. tuberculosis project (AID 489025); type: functional
[9] = target: Phosphoethanolamine/phosphocholine phosphatase (Homo sapiens, UniProt Q8TCT1); assay: SAR assay for compounds that inhibit PHOSPHO1. [Related pubchem assays (depositor defined):AID1545, AID1565, AID1574]
[10] = target: T1, Mannose-6-phosphate isomerase (Homo sapiens, UniProt P34949); assay: PMI enzyme inhibitors, confirmation, biochemical, fluorescence intensity (AID 1535)
T1 sequence (P34949 whole entry): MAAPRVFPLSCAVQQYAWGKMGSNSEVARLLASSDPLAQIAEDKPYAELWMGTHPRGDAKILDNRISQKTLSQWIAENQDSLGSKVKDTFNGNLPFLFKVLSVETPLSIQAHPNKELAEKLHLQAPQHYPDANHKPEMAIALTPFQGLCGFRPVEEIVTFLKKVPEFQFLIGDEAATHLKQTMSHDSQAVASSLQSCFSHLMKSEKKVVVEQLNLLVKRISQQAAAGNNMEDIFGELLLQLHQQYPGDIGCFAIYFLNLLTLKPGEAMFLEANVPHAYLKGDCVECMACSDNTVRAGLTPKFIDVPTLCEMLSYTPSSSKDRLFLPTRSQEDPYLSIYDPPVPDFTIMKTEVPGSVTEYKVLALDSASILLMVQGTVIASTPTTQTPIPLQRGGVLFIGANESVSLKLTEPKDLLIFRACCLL

Phosphomannomutase 2 = Phosphomannomutase 2 (Homo sapiens, UniProt O15305); assay: Counter screen SAR assay for PMM2 inhibitors via a fluorescence intensity assay. [Related pubchem assays (depositor defined):AID1545, AID1574]
[11] = cytotoxicity in HPDE-C7 cells, cell-based, fluorescence, HTS (AID 430); type: functional; settings: Homo sapiens
[12] = cytotoxicity in KRAS-transformed pancreatic duct cells, primary screen, cell-based, fluorescence, HTS (AID 431); type: functional; settings: Homo sapiens;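 also: cell line used: HPDE-C7K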
[13] = target: Glucose-6-phosphate 1-dehydrogenase (Homo sapiens, UniProt P11413); assay: human G6PD enzyme inhibitors, dose response, selectivity assay for P. falciparum G6PD inhibitor project, biochemical, fluorescence (AID 504792); type: functional
[14] = target: Scavenger receptor class B member 1 (Mus musculus, UniProt Q61009); assay: inhibitors of SR-BI mediated HDL lipid uptake, dose response, ldlA[mSR-BI] cells, fluorescence, cherry pick (AID 493194); type: functional, cell-based;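 also: cellular uptake of fluorescent DiI-labeled HDL measured as cell fluorescence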
ORF 73 = ORF 73 (Human herpesvirus 8, UniProt O40947); assay: inhibitors of C-LANA binding to LBS DNA, dose response, biochemical, fluorescence polarization, cherry-picked samples (AID 504725); parameters: species or system Human gammaherpesvirus 8;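 also: fluorescence polarization of a labeled DNA duplex reporting LANA DNA binding; potency is for inhibitors that block LANA binding to the DNA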
[15] = target: T2, Protein phosphatase methylesterase 1 (Homo sapiens, UniProt Q9Y570); assay: PME-1 inhibitor potency by in-gel ABPP, dose response, selectivity assay for PME-1 inhibitor project, cell lysate, mouse brain cytosol, FP-rhodamine, panel member PME-1 Assay Panel member description: Inhibition of endogenously expressed PME-1 (AID 2366)
[16] = target: T2, Protein phosphatase methylesterase 1; assay: Late stage results from the probe development effort to identify inhibitors of the protein methylesterase PME-1: Gel-based Activity-Based Protein Profiling (ABPP) IC50: Purified enzyme.; type: functional

T2 sequence (Q9Y570 whole entry): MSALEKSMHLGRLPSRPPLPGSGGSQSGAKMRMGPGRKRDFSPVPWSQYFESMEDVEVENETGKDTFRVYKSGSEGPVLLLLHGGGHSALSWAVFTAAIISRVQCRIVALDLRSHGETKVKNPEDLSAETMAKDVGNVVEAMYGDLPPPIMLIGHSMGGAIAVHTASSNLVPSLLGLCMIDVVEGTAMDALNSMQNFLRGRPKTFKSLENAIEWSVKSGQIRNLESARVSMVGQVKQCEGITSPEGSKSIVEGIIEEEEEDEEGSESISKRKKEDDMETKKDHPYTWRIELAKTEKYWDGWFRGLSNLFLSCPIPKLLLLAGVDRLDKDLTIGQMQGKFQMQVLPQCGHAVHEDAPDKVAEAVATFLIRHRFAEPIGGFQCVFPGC
Sequence of Phosphomannomutase 2 (O15305 whole entry): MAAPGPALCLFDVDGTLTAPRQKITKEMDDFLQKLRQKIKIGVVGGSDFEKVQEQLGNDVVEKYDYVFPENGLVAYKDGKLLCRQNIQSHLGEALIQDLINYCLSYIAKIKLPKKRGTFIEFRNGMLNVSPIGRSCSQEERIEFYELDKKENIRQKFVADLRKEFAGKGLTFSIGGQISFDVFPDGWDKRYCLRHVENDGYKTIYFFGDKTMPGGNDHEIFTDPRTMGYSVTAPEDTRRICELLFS
Sequence of Serine/threonine-protein phosphatase (Q9BPW0 whole entry): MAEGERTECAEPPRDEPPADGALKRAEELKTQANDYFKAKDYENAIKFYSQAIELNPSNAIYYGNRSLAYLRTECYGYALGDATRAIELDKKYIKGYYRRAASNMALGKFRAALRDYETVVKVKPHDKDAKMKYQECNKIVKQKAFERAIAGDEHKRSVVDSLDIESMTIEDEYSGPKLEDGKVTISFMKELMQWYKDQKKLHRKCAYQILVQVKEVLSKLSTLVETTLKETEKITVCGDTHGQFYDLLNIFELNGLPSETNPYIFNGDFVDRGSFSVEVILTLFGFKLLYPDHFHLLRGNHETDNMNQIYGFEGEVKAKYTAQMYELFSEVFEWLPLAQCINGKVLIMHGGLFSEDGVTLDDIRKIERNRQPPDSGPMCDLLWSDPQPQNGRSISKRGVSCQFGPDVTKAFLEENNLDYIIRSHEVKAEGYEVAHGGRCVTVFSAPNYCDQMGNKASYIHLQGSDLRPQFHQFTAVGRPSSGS
Sequence of Glucose-6-phosphate 1-dehydrogenase (P11413 whole entry): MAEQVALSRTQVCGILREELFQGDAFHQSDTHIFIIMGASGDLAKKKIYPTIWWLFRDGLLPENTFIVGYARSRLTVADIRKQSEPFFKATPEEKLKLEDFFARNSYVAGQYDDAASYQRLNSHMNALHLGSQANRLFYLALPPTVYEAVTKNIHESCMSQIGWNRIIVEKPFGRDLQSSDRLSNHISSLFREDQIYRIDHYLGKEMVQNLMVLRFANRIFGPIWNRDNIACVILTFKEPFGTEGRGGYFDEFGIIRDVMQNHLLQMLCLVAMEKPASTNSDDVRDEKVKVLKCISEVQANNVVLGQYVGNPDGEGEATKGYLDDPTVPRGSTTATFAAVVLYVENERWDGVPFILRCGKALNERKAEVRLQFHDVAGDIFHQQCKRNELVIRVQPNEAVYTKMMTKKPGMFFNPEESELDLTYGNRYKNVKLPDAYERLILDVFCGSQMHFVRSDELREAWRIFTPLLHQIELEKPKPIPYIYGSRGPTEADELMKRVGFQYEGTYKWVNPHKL
Sequence of Glyceraldehyde-3-phosphate dehydrogenase (P04406 whole entry): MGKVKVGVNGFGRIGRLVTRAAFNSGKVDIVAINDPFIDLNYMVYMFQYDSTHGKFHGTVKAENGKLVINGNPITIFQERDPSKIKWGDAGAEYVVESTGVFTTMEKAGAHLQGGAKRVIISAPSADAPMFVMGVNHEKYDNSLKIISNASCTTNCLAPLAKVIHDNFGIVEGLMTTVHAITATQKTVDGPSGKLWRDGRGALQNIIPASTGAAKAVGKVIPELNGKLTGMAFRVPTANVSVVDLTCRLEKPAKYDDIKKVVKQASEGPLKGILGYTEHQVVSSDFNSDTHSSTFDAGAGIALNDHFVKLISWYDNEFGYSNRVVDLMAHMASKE
Sequence of Scavenger receptor class B member 1 (Q61009 whole entry): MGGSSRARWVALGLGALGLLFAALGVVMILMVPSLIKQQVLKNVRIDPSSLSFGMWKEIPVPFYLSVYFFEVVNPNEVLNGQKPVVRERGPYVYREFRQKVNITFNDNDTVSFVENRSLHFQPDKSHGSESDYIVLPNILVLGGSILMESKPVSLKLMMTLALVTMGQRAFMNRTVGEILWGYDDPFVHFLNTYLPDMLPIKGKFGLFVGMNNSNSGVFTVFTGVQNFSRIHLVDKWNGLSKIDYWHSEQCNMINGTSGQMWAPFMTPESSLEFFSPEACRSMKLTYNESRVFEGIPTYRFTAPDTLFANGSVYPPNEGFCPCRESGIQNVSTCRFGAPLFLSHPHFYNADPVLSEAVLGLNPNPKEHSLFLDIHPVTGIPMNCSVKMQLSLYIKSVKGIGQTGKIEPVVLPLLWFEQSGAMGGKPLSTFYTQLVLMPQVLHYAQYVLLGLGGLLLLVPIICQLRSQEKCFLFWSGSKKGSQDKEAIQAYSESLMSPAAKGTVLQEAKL
Sequence of Nonstructural protein 1 (Q194T2 whole entry): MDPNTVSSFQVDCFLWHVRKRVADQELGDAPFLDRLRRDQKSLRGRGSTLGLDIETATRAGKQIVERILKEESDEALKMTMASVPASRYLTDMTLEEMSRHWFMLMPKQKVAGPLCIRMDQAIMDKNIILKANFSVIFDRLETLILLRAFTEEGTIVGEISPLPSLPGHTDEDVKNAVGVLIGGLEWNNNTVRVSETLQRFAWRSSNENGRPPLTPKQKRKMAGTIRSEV
Sequence of Phosphoethanolamine/phosphocholine phosphatase (Q8TCT1 whole entry): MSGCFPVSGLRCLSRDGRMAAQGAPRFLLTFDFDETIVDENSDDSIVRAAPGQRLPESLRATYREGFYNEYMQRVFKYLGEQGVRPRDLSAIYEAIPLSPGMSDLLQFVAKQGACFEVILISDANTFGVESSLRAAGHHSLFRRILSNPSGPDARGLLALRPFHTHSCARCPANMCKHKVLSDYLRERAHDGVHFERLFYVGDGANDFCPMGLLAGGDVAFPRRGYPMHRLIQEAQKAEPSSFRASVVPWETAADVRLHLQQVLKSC
Sequence of Serine/threonine-protein phosphatase PP1-alpha catalytic subunit (P62136 whole entry): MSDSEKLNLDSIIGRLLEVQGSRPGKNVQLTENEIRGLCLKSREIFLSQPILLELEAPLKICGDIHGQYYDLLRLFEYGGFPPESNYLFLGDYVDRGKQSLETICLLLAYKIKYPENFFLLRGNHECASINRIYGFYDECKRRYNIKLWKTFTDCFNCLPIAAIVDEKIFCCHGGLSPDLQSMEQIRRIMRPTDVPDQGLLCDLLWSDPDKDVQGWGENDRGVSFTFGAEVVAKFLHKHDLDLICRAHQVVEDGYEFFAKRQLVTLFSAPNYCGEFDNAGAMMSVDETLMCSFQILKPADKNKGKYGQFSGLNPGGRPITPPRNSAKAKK
Sequence of ORF 73 (O40947 whole entry): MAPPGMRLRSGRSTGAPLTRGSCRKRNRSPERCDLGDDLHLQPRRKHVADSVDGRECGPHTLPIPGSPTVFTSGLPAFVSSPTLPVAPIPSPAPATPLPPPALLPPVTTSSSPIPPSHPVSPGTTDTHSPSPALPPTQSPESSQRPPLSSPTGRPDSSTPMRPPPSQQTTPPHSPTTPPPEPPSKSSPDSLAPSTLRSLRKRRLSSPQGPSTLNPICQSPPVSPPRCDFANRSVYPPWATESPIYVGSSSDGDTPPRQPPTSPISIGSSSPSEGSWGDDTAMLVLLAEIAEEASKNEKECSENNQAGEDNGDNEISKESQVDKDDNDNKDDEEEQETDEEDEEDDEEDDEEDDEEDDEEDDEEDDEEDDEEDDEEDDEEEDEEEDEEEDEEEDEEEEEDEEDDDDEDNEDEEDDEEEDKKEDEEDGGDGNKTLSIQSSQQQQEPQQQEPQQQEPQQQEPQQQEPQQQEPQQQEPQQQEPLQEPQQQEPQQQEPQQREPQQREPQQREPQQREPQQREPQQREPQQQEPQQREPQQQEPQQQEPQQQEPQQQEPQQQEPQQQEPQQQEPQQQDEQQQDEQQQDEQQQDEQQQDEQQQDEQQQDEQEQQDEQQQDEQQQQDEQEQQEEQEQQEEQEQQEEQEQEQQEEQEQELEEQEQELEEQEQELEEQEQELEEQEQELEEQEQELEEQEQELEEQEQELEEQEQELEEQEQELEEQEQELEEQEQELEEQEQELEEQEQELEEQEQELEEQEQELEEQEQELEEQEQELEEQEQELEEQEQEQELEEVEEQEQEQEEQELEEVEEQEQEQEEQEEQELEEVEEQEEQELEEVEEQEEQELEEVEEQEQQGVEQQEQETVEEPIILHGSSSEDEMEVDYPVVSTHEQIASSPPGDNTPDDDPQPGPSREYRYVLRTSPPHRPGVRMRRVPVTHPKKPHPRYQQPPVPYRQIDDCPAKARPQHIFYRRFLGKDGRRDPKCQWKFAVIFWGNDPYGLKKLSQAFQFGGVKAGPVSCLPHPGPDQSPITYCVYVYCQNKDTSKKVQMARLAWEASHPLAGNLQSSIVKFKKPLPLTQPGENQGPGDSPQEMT

For `Cc1cccc(Nc2nc(-c3ccccn3)cs2)n1`, the CC50 [1] was 11.6 µM (active), the IC50 (cells) was 0.27 µM (active) and the EC50 [2] was 0.503 µM (active). For the same compound, the IC50 [3] was 4.96 µM (active), the IC50 (Nonstructural protein 1) was 29.6 µM (active) and the EC50 [4] was 7.24 µM (active). The EC50 [5] was 8.56 µM (active), the IC50 [6] was > 10 µM (inconclusive) and the IC50 [7] was > 22.3 µM (not active). For the same compound, the CC50 [8] was 21.8 µM (active).
With `O=c1c2ccccc2sn1-c1ccc(S(=O)(=O)N2CCCC2)cc1` the IC50 [9] was 0.489 µM (active), the EC50 [2] was 1.29 µM (active) and the IC50 [10] was > 50 µM (inactive). The IC50 (Phosphomannomutase 2) was > 100 µM (inactive), the EC50 [11] was > 20 µM (not active) and the EC50 [5] was > 30 µM (not active). For the same compound, the EC50 [12] was > 20 µM (not active) and the IC50 [13] was 30.7 µM (inactive).
In the case of `Cc1cc(C)n(CC(=O)NC2CCCc3c2cnn3-c2ccc(C)c(C)c2)n1` (configuration not stated), the AC50 [14] is reported as 0.819 µM (active).
In the case of `O=C(COc1ccccc1Cc1ccccc1)NCCCN1CCOCC1`, the AC50 (ORF 73) is reported as 183 µM (active).
For `CS(=O)(=O)/C(C#N)=C/c1ccccc1`, the IC50 [15] was > 20 µM (inactive) and the IC50 [16] was > 20 µM (not active).
